Measurements as given in PMC5971037, “Synthesis and evaluation of antimicrobial, antitubercular and anticancer activities of 2-(1-benzoyl-1H-benzo[d]imidazol-2-ylthio)-N-substituted acetamides” (Chemistry Central Journal, 2018).
Values after ≈ are worked out from the molar mass of the structure shown. Read-outs that look alike come from different tables or passages of the source.

Tests used:
[1] = tested on: M. tuberculosis H37Rv; experiment: Minimum lethal concentration (MLC); format: cell-based; settings: Mycobacterium tuberculosis, NA = no activity, read-out: MLC against M. tuberculosis H37Rv
[2] = tested on: S. aureus; experiment: MBC by subculturing; format: cell-based; settings: Staphylococcus aureus
Procedure: (§1) The minimum bactericidal concentration (MBC) and minimum fungicidal concentration (MFC) of the synthesized benzimidazole derivatives was determined by subculturing 100 µl of culture from each tube that remained clear in MIC determination onto sterilized petri-plates containing fresh agar medium. The petri-plates were incubated and analyzed for microbial growth visually.

[3] = tested on: S. typhi; experiment: MBC by subculturing; format: cell-based; settings: Salmonella enterica, read-out: MBC S. typhi
Procedure: as §1

[4] = tested on: E. coli; experiment: MBC by subculturing; format: cell-based; settings: Escherichia coli
Procedure: as §1

[5] = tested on: B. subtilis; experiment: MBC by subculturing; format: cell-based
Procedure: as §1

[6] = tested on: B. cereus; experiment: MBC by subculturing; format: cell-based
Procedure: as §1

[7] = tested on: C. albicans; experiment: MFC by subculturing; format: cell-based
Procedure: as §1

[8] = tested on: A. niger; experiment: MFC by subculturing; format: cell-based
Procedure: as §1

[9] = tested on: S. typhi; experiment: Tube dilution MIC; format: cell-based; settings: Salmonella enterica, 24 h, read-out: MIC S. typhi
[10] = tested on: HCT116 (human colorectal) cell line; experiment: Sulforhodamine-B (SRB) cytotoxicity assay; format: cell-based
[11] = tested on: S. aureus; experiment: Tube dilution MIC; settings: Staphylococcus aureus, 24 h, read-out: MIC S. aureus
[12] = tested on: E. coli; experiment: Tube dilution MIC; settings: Escherichia coli, 24 h, read-out: MIC E. coli
[13] = tested on: C. albicans; experiment: microbe, parasite or virus in culture; settings: Candida albicans, 48 h, read-out: MIC C. albicans
[14] = tested on: M. tuberculosis H37Rv; experiment: MIC by microplate alamar blue assay; format: cell-based; settings: Mycobacterium tuberculosis, NA = no activity, read-out: MIC against M. tuberculosis H37Rv
[15] = tested on: MCF7 (human breast cancer) cell line; experiment: Sulforhodamine-B (SRB) cytotoxicity assay; format: cell-based
[16] = tested on: B. cereus; experiment: Tube dilution MIC; settings: Bacillus cereus, 24 h, read-out: MIC B. cereus
[17] = tested on: Gram positive as well as Gram negative bacterial species; experiment: Tube dilution MIC, bacteria overall; format: cell-based
[18] = tested on: M. tuberculosis H37Rv (NCFT/TB/537); experiment: Well diffusion susceptibility test (zone of inhibition); format: cell-based; settings: Mycobacterium tuberculosis, 672 h, read-out: Diameter of zone of inhibition against H37Rv (NCFT/TB/537), wells of 8 mm, 50 µg/ml test compound, 25 µg/ml standard drug, 4 weeks, NA = no activity
[19] = tested on: A. niger; experiment: microbe, parasite or virus in culture; settings: Aspergillus niger, 168 h, read-out: MIC A. niger
[20] = tested on: B. subtilis; experiment: Tube dilution MIC; settings: Bacillus subtilis, 24 h, read-out: MIC B. subtilis
[21] = biological target: mycobacterial isocitrate lyase (Mycobacterium tuberculosis, UniProt P9WKK7); experiment: Mycobacterial isocitrate lyase (ICL) assay; format: biochemical, M. tuberculosis H37Rv; settings: read-out: Percent inhibition of enzyme, M. ICL activity
Sequence of mycobacterial isocitrate lyase (P9WKK7 whole entry): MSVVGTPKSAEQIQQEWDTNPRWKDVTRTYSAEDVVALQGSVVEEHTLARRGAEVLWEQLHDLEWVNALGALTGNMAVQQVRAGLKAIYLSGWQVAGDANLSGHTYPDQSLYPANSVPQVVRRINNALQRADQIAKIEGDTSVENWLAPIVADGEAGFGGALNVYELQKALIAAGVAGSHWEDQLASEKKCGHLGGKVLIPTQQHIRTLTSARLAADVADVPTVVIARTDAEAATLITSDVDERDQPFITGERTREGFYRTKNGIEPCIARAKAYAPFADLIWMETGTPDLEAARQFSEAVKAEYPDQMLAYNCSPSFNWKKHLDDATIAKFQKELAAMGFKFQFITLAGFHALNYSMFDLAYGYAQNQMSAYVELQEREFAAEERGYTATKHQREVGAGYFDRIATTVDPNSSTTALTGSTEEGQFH
Procedure: The compounds found potent in in vivo evaluation were assayed for inhibition of mycobacterial enzymes viz., isocitrate lyase, pantothenate synthetase and chorismate mutase.
Isocitrate lyase activity was assayed according to the protocol reported by Dixon and Kornberg (glyoxylate phenyl hydrazone formation) at 10 μM of the compounds.

[22] = In vivo LD50, ED50 and toxic dose in mice models; settings: mouse, dose that killed 50% of the mice population within the group
Procedure: The LD50 and ED50 were determined for the active compounds in mice models infected with Mycobacterium H37Rv (Table 4). […] Thus, ED50 of 1.34 mg/kg was considered safe for each of the compounds. It was observed that this dose was effective and safe for mice in different groups before infecting the mice models with specific TB bacteria as no mortality of any single animal was recorded.
The LD50 (lethal dose) and ED50 (optimum/effective dose) doses were determined for the active compounds in mice models infected with Mycobacterium H37Rv via ethical permission no., NCFT/EC/16/2313 assigned to Collaborative Research Group (CRG), NCFT, New Delhi, India.

O=C(CSc1nc2ccccc2n1C(=O)c1ccccc1)Nc1ccc(Br)cc1 [Compound 9, 2-(1-Benzoyl-1H-benzo[d]imidazol-2-ylthio)-N-(4-bromophenyl)acetamide]
MBC [1]: 28.1 µg/mL (≈ 60.3 µM) | MBC [2]: > 50 µg/mL | MBC [3]: 50 µg/mL (≈ 107 µM) | MBC [4]: > 50 µg/mL | MBC ([5]; Bacillus subtilis; read-out: MBC B. subtilis): > 50 µg/mL | MBC ([6]; Bacillus cereus; read-out: MBC B. cereus): > 50 µg/mL | MFC ([7]; Candida albicans; read-out: MFC C. albicans): 50 µg/mL (≈ 107 µM) | MFC ([8]; Aspergillus niger; read-out: MFC A. niger): > 50 µg/mL | MIC [9]: 27 µM (≈ 12.6 µg/mL) | IC50 ([10]; HCT-116, SRB assay, HCT116 cell line, read-out: IC50 HCT116): 64.3 µM | MIC [11]: 27 µM (≈ 12.6 µg/mL) | MIC [12]: 27 µM (≈ 12.6 µg/mL) | MIC [13]: 13 µM (≈ 6.06 µg/mL) | MIC [14]: 17.8 µg/mL (≈ 38.2 µM) | IC50 ([15]; SRB assay, MCF7 cell line, read-out: IC50 MCF7): > 214 µM | MIC [16]: 27 µM (≈ 12.6 µg/mL) | MIC against Gram positive as well as Gram negative bacterial species [17]: 0.027 µM/ml | zone of inhibition at 50 µg/mL [18]: 8 mm | MIC [19]: 27 µM (≈ 12.6 µg/mL) | MIC [20]: 27 µM (≈ 12.6 µg/mL)

O=C(CSc1nc2ccccc2n1C(=O)c1ccccc1)Nc1cccc([N+](=O)[O-])c1 [Compound 10, 2-(1-Benzoyl-1H-benzo[d]imidazol-2-ylthio)-N-(3-nitrophenyl)acetamide]
MBC [1]: 25 µg/mL (≈ 57.8 µM) | MBC [2]: 50 µg/mL (≈ 116 µM) | MBC [3]: 50 µg/mL (≈ 116 µM) | MBC [4]: > 50 µg/mL | MBC ([5]; Bacillus subtilis, read-out: MBC B. subtilis): 50 µg/mL (≈ 116 µM) | MBC ([6]; Bacillus cereus, read-out: MBC B. cereus): > 50 µg/mL | MFC ([7]; Candida albicans, read-out: MFC C. albicans): > 50 µg/mL | MFC ([8]; Aspergillus niger, read-out: MFC A. niger): > 50 µg/mL | MIC [9]: 29 µM (≈ 12.5 µg/mL) | IC50 ([10]; HCT-116, read-out: IC50 HCT116): 5.8 µM | MIC [11]: 29 µM (≈ 12.5 µg/mL) | MIC [12]: 29 µM (≈ 12.5 µg/mL) | inhibition at 10 µM [21]: 61.2% | MIC [13]: 15 µM (≈ 6.49 µg/mL) | LD50 [22]: 1.83 mg/kg | MIC [14]: 12.5 µg/mL (≈ 28.9 µM) | IC50 ([15]; MCF7, read-out: IC50 MCF7): 78.6 µM | MIC [16]: 29 µM (≈ 12.5 µg/mL) | zone of inhibition at 50 µg/mL [18]: > 20 mm | MIC [19]: 29 µM (≈ 12.5 µg/mL) | MIC [20]: 29 µM (≈ 12.5 µg/mL)
